“Also recorded” adds a separate entry of the source.
Tests used:
[1] = tested on: CD8+ T cells from HLA-A2+ healthy donors; experiment: Priming of naive CTLs by peptide-loaded autologous moDCs (immunogenicity, tetramer staining); format: cell-based, human; conditions: for specific CD8+ T expansions (immunogenicity): total of 6 donors, FIG. 11A; for expansion of specific CD8+ T cells (tetramer positive): one donor, versus co-culture without peptides
Protocol: Priming of naïve CTLs. PBMCs were obtained by Ficoll gradient separation from HLA-A2+ healthy blood donors. CD14+, CD4+ and CD8+ cells were purified by positive selection using magnetic beads (Miltenyi Biotec). While CD4+ and CD8+ T cells were cryopreserved until the experiment day, CD14+ fraction was cultured in the presence of IL-4 (50 ng/mL) and GM-CSF (10 ng/ml) at 10^6 cells/mL during 5 days to obtain moDCs. After this period of time, the moDCs were maturated with LPS and incubated with synthetic ER-derived peptides at a final concentration of 1 μg/mL for 2 hours. Finally, peptide-loaded moDCs were co-cultured with autologous CD4+ and CD8+ T cells in culture medium supplemented with IL-2 (10 U/ml) and IL-7 (100 ng/ml). The ER-derived peptide stimulation of specific CD8+ CTL populations was assessed by MHC-I tetramer staining by flow cytometry using a combination of two-color tetramer for each peptide.
(§1) Tetramer Staining. Cells were resuspended in PBS, stained with Live/Dead Aqua-405 nm (ThermoFisher) during 20 minutes at 4° C. and washed once. After that, cells were resuspended in PBS-1% BSA containing the mix of SA-coupled tetramers and incubated in the dark at room temperature during 20 minutes. Without further washing, surface antibodies were added in PBS-1% BSA and cells were incubated 20 minutes in the dark at 4° C. Surface antibodies were a combination of anti-CD3-BV650+ anti-CD8-PECy7 in combination with anti-CCR7-AF700+ anti-CD45RA-BUV395 when required. Finally, cells were washed twice and resuspended in FACS buffer for flow cytometry analysis.
The following step after binding validation to HLA-A2 allele, was to test the immunogenicity of predicted peptides. Priming assays were thus performed to test the ability of identified peptides to expand specific cytotoxic T cells. PBMCs from HLA-A2+ healthy donors were used to generate monocyte derived-DCs (moDCs). After loading the moDCs with a mix of synthetic peptides, autologous co-culture was performed with CD4+ and CD8+ T cells. Finally, the expansion of specific CD8+ T cells was analysed by flow cytometry using two-colours tetramer staining. As a control of specific expansion, the co-culture was performed in the absence of peptides. […] The same experiment was performed in order to evaluate the response in additional 5 donors.

[2] = tested on: TILs derived from LUAD patients; experiment: Tetramer staining of expanded tumor infiltrating lymphocytes (TILs); format: cell-based, human; conditions: TILs expanded with peptide mix + IL-2 or IL-2 only; HLA-A2+ LUAD patients
Protocol: as §1
Tumor infiltrating lymphocytes (TILs) cultures. Tumor tissue was cut into small pieces (1-3 mm3 size, 6-12 pieces maximum). Each tumor fragment was transferred into individual wells from 24-well plates and cultured in a final volume of 2 ml RPMI 10% Human Serum+IL-2 6000 IU/ml. Cells were feed/split as necessary during 15-20 days and cryopreserve or analyzed for tetramer staining.
In a first set of experiments tumor infiltrating lymphocytes (TILs) expanded with a mix of TE-derived peptides and Il-2, or only with Il-2, were analyzed by tetramer staining. As is shown in FIGS. 13A and B, we found CD8+ T-cells cells recognizing fusion-derived peptides in TILs derived from LUAD patients.

Sequence: ILHSLVTGV
- specific CD8+ T expansions (immunogenicity) [1]: specific CD8+ T expansions

Sequence: AMDGKELSL
- specific CD8+ T expansions (immunogenicity) [1]: specific CD8+ T expansions

Sequence: FLIVAEILI
- expansion of specific CD8+ T cells (tetramer positive) [1]: expand specific CD8+ T cells

Sequence: LLDRFGYHV
- specific CD8+ T expansions (immunogenicity) [1]: specific CD8+ T expansions

Sequence: LLGETKVYV
- expansion of specific CD8+ T cells (tetramer positive) [1]: expand specific CD8+ T cells
- specific CD8+ T expansions (immunogenicity) [1]: specific CD8+ T expansions

Sequence: RQAPGFHHA
- specific CD8+ T expansions (immunogenicity) [1]: specific CD8+ T expansions

Sequence: GLPSHVELA
- specific CD8+ T expansions (immunogenicity) [1]: specific CD8+ T expansions; also recorded: immunogenic
- CD8+ T cells recognizing peptide in TILs (tetramer positive) [2]: found TILs recognizing

Sequence: MLMKTVWQA
- specific CD8+ T expansions (immunogenicity) [1]: specific CD8+ T expansions

Sequence: VLLTNTIWL
- specific CD8+ T expansions (immunogenicity) [1]: specific CD8+ T expansions

Sequence: FLGTRVTRV
- specific CD8+ T expansions (immunogenicity) [1]: specific CD8+ T expansions

Sequence: YLWTTFFPL
- expansion of specific CD8+ T cells (tetramer positive) [1]: expand specific CD8+ T cells
- specific CD8+ T expansions (immunogenicity) [1]: specific CD8+ T expansions

Sequence: SLMQSGSPV
- specific CD8+ T expansions (immunogenicity) [1]: specific CD8+ T expansions

Sequence: AILPKANTV
- expansion of specific CD8+ T cells (tetramer positive) [1]: expand specific CD8+ T cells
- specific CD8+ T expansions (immunogenicity) [1]: specific CD8+ T expansions

Sequence: LLTSWHLYL
- specific CD8+ T expansions (immunogenicity) [1]: specific CD8+ T expansions

Sequence: RLADHLSFC
- expansion of specific CD8+ T cells (tetramer positive) [1]: expand specific CD8+ T cells
- specific CD8+ T expansions (immunogenicity) [1]: specific CD8+ T expansions; also recorded: immunogenic

Sequence: GLLNISHTA
- specific CD8+ T expansions (immunogenicity) [1]: specific CD8+ T expansions

Sequence: ILSGYGPCV
- specific CD8+ T expansions (immunogenicity) [1]: specific CD8+ T expansions

Sequence: ILTASITSI
- specific CD8+ T expansions (immunogenicity) [1]: specific CD8+ T expansions

Sequence: MLVTWELAL
- specific CD8+ T expansions (immunogenicity) [1]: specific CD8+ T expansions

Sequence: LLHLESFLV
- specific CD8+ T expansions (immunogenicity) [1]: specific CD8+ T expansions

Sequence: RLLHLESFL
- expansion of specific CD8+ T cells (tetramer positive) [1]: expand specific CD8+ T cells

From patent US12152077B1, “Immunotherapy targeting tumor neoantigenic peptides” (INSTITUT CURIE, priority 2019, dated 2024)
